Consider 23 compounds from US10208068B2, “Macrocycles as factor XIa inhibitors” (BRISTOL-MYERS SQUIBB COMPANY, priority 2011, dated 2019).

SMILES strings stand for the structures. pKi: −log10 of the molar value. Counter-ions that a name gives are not always drawn. Where only a bound is given, the exact number is not on record here.

By pKi is commonly meant the negative decadic logarithm of the Ki, by convention in mol/L. Low readings indicate a large Ki, high ones a small Ki.

In the assay the target is human Factor XIa (Homo sapiens (Human), UniProt P03951). As to the kind of experiment: Factor XIa enzyme inhibition assay (chromogenic substrate S-2366). Type of assay: biochemical. The following applies: purified human Factor XIa 25-200 pM, substrate S-2366, 50 mM HEPES pH 7.4.
Chain of human Factor XIa (P03951 388-625): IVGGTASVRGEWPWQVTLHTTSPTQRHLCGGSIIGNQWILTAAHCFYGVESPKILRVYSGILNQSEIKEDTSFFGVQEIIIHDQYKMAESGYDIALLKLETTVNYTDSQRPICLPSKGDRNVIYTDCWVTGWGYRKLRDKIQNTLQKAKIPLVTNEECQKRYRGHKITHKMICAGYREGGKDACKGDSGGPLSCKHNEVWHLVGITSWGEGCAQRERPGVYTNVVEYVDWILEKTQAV
Chain of human Factor XIa (P03951 19-387 partner): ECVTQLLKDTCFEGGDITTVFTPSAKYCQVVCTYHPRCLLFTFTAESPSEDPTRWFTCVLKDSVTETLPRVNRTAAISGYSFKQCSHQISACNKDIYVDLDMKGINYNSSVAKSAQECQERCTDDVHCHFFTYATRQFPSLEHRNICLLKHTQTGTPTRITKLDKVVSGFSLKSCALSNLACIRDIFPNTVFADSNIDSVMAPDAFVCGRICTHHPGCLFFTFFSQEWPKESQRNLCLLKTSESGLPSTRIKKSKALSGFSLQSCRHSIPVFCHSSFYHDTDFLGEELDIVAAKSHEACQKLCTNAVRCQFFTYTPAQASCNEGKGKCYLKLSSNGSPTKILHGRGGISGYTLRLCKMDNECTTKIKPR
With `CCC1CCC[C@H](NC(=O)c2cn(-c3cccc(Cl)c3F)nn2)c2cc(ccn2)-c2ccc(NC(=O)OC)cc2NC1=O` (single isomer, unassigned) [Example 24, TFA salt], the pKi was > 8.30. In turn, `COC(=O)Nc1ccc2c(c1)NC(=O)[C@H](C)C(O)CC[C@H](NC(=O)c1cnn(-c3cccc(Cl)c3F)c1C)c1cc-2ccn1` (single isomer, unassigned) [Example 177, TFA salt] gave a negative-log Ki (pKi) of 7.26.

The compound `COC(=O)Nc1ccc2c(c1)C(=O)NC(C)CCC[C@H](NC(=O)c1cnn(-c3cccc(Cl)c3F)c1C)c1cc-2ccn1` (single isomer, unassigned) [Example 221] had a pKi of 6.51. The same measure for `COC(=O)Nc1ccc2c(c1)NC(=O)[C@H](C)CCC[C@H](NC(=O)c1cn(-c3cccc(Cl)c3F)nn1)c1cc-2ccn1` [Example 3]: > 8.30. As for `COC(=O)Nc1ccc2c(c1)NC(=O)[C@H](C)CCC[C@H](NC(=O)c1cnn(C3CCCNC3)c1)c1cc-2ccn1` (some centres unmarked) [Example 11], the figure is 7.16; as for `COC(=O)Nc1ccc2c(c1)NC(=O)[C@H](C)CCC[C@H](NC(=O)c1nnn(-c3cccc(Cl)c3F)c1Cl)c1cc-2ccn1` [Example 15], > 8.30; as for `COC(=O)Nc1ccc2c(c1)NC(=O)[C@H](C)CCC[C@H](NC(=O)c1cn(-c3cccc(C)c3)cn1)c1cc-2ccn1` [Example 18], 7.01. As for `COC(=O)Nc1ccc2c(c1)NC(=O)CCCC[C@H](NC(=O)c1cnn(-c3cccc(Cl)c3F)c1)c1cc-2ccn1` [Example 21, Methyl N-[(14S)-14-[1-(3-chloro-2-fluorophenyl)-1H-pyrazole-4-amido]-9-oxo-8,16-diazatricyclo[13.3.1.0^2,7]nonadeca-1(19),2(7),3,5,15,17-hexaen-5-yl]carbamate, TFA salt], the figure is 8.04; as for `CCOC(=O)C1CCCC[C@H](NC(=O)c2cnn(-c3cccc(Cl)c3F)c2)c2cc(ccn2)-c2ccc(NC(=O)OC)cc2N1` (stereo partly drawn) [Example 26, Ethyl (9R,14S)-14-[1-(3-chloro-2-fluorophenyl)-1H-pyrazole-4-amido]-5-[(methoxycarbonyl)amino]-8,16-diazatricyclo[13.3.1.0^2,7]nonadeca-1(19),2(7),3,5,15,17-hexaene-9-carboxylate, 2 TFA salt], 6.75. In the case of `COC(=O)Nc1ccc2c(c1)NC(=O)CCCC[C@H](NC(=O)c1cnn(-c3cccc(Cl)c3F)c1)c1cc-2cnc1F` [Example 32, Methyl N-[(14S)-14-[1-(3-chloro-2-fluorophenyl)-1H-pyrazole-4-amido]-16-fluoro-9-oxo-8,17-diazatricyclo[13.3.1.0^2,7]nonadeca-1(19),2(7),3,5,15,17-hexaen-5-yl]carbamate, TFA salt], the negative logarithm of the Ki (pKi) is 7.94. As for `COC(=O)Nc1ccc2c(c1)NC(=O)[C@H](C)CCC[C@H](NC(=O)c1nnn(-c3cccc(Cl)c3F)c1C)c1nc-2c[nH]1` [Example 39], the figure is 7.97. `COC(=O)Nc1ccc2c(c1)NC(=O)[C@H](C)CCC[C@H](NC(=O)c1cnn(-c3cccc(Cl)c3)c1C)c1nc-2c[nH]1` [Example 41] gave a pKi of 7.89. As for `COC(=O)Nc1ccc2c(c1)NC(=O)CCCC[C@H](NC(=O)c1cn(-c3cccc(Cl)c3)nn1)c1nc-2c[nH]1` [Example 52, Methyl N-[(14S)-14-[1-(3-chlorophenyl)-1H-1,2,3-triazole-4-amido]-9-oxo-8,16,18-triazatricyclo[13.2.1.0^2,7]octadeca-1(17),2,4,6,15(18)-pentaen-5-yl]carbamate], the figure is 6.66; as for `COC(=O)Nc1ccc2c(c1)NC(=O)CC/C=C/C[C@H](NC(=O)c1c[nH]c(-c3c(F)ccc(Cl)c3F)n1)c1nc-2c[nH]1` [Example 58, Methyl ((12E,15S)-15-(((2-(3-chloro-2,6-difluorophenyl)-1H-imidazol-4-yl)carbonyl)amino)-9-oxo-8,17,19-triazatricyclo[14.2.1.0^2,7]nonadeca-1(18),2,4,6,12,16(19)-hexaen-5-yl)carbamate], 6.03. As for `COC(=O)Nc1ccc2c(c1)NC(=O)[C@H](C)CCC[C@H](NC(=O)c1cn(-c3c(F)ccc(Cl)c3F)cn1)c1cc-2ccn1` [Example 72], the figure is 7.98; as for `COC(=O)Nc1ccc2c(c1)NC(=O)[C@H](C)CCC[C@H](NC(=O)c1cncc(-c3cccc(Cl)c3F)c1)c1cc-2ccn1` [Example 75], 7.44; as for `COC(=O)Nc1ccc2c(c1)NC(=O)CCCC(C)[C@H](NC(=O)c1nnn(-c3cccc(Cl)c3F)c1C)c1cc-2ccn1` (stereo partly drawn) [Example 88, Methyl N-[(14S)-14-[1-(3-chloro-2-fluorophenyl)-5-methyl-1H-1,2,3-triazole-4-amido]-13-methyl-9-oxo-8,16-diazatricyclo[13.3.1.0^2,7]nonadeca-1(19),2(7),3,5,15,17-hexaen-5-yl]carbamate], 7.28. In turn, `Cc1c(C(=O)N[C@H]2CCC[C@@H](C)C(=O)Nc3cc(NC(=O)C(F)(F)F)ccc3-c3ccnc2c3)nnn1-c1cccc(Cl)c1F` [Example 137, 1-(3-Chloro-2-fluorophenyl)-5-methyl-N-[(10R,14S)-10-methyl-9-oxo-5-(trifluoroacetamido)-8,16-diazatricyclo[13.3.1.0^2,7]nonadeca-1(19),2(7),3,5,15,17-hexaen-14-yl]-1H-1,2,3-triazole-4-carboxamide] gave a pKi of 6.26. The compound `Cc1c(C(=O)N[C@H]2CCC[C@@H](C)C(=O)Nc3cc(NC(=O)OCF)ccc3-c3ccnc2c3)nnn1-c1cccc(Cl)c1F` [Example 139, Fluoromethyl N-[(10R,14S)-14-[1-(3-chloro-2-fluorophenyl)-5-methyl-1H-1,2,3-triazole-4-amido]-10-methyl-9-oxo-8,16-diazatricyclo[13.3.1.0^2,7]nonadeca-1(19),2(7),3,5,15,17-hexaen-5-yl]carbamate] gave a negative-log Ki (pKi) of 8.26. Against the preceding compound, the pKi is 2.00 log units higher. The same measure for `Cc1c(C(=O)N[C@H]2CCC[C@@H](C)C(=O)Nc3cc(Nc4ccncn4)ccc3-c3ccnc2c3)nnn1-c1cccc(Cl)c1F` [Example 151]: 7.76; for `CCOC(=O)CNc1ccc2c(c1)NC(=O)[C@H](C)CCC[C@H](NC(=O)c1nnn(-c3cccc(Cl)c3F)c1C)c1cc-2ccn1` [Example 156, Ethyl 2-{[(10R,14S)-14-[1-(3-chloro-2-fluorophenyl)-5-methyl-1H-1,2,3-triazole-4-amido]-10-methyl-9-oxo-8,16-diazatricyclo[13.3.1.0^2,7]nonadeca-1(19),2(7),3,5,15,17-hexaen-5-yl]amino}acetate]: 7.77; for `Cc1c(C(=O)N[C@H]2CCC[C@@H](C)C(=O)Nc3cc(N)c(C(=O)O)cc3-c3ccnc2c3)nnn1-c1cccc(Cl)c1F` [Example 158, (10R,14S)-5-Amino-14-[1-(3-chloro-2-fluorophenyl)-5-methyl-1H-1,2,3-triazole-4-amido]-10-methyl-9-oxo-8,16-diazatricyclo[13.3.1.0^2,7]nonadeca-1(19),2(7),3,5,15,17-hexaene-4-carboxylic acid]: > 8.30. As for `Cc1nnc(Nc2ccc3c(c2)NC(=O)[C@H](C)CCC[C@H](NC(=O)c2nnn(-c4cccc(Cl)c4F)c2C)c2cc-3ccn2)o1` [Example 159, 1-(3-Chloro-2-fluorophenyl)-5-methyl-N-[(10R,14S)-10-methyl-5-[(5-methyl-1,3,4-oxadiazol-2-yl)amino]-9-oxo-8,16-diazatricyclo[13.3.1.0^2,7]nonadeca-1(19),2(7),3,5,15,17-hexaen-14-yl]-1H-1,2,3-triazole-4-carboxamide], the figure is 8.00.
